US20170369444A1, “INHIBITORS OF HISTONE DEMETHYLASES” (Gilead Sciences, Inc., priority 2014, published 2017)

Experiments:
Format in all cases: biochemical
KDM2B (FBXL10) = target: T1, KDM2B (FBXL10) (Homo sapiens, UniProt Q8NHM5); assay: Histone lysine demethylase AlphaLISA assay, KDM2B; conditions: in vitro enzyme, read-out: KDM2B IC50 (HDME Inhibition)
T1 construct: 1-650; purchased BPS Bioscience, US; host or cells: Bac (baculovirus/insect cells)
T1 sequence (Q8NHM5 1-650): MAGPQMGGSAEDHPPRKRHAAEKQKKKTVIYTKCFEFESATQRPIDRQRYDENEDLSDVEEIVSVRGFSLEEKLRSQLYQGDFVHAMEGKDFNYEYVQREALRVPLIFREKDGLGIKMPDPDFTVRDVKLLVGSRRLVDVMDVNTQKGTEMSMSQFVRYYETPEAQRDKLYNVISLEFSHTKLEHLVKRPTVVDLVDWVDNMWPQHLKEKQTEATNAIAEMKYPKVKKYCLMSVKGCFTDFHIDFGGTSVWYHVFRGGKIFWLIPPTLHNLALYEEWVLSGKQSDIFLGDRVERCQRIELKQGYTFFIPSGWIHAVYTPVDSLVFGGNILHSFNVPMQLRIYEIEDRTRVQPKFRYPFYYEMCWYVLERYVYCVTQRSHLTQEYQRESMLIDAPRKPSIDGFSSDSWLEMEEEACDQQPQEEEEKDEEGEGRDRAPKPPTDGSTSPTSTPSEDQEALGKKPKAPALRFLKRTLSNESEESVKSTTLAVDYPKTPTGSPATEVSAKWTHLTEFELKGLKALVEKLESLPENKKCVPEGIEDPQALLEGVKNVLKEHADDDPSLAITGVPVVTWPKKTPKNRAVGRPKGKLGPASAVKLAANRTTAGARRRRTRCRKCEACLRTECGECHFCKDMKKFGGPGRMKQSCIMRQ
Procedure: (§1) Histone lysine demethylase AlphaLISA assays are performed to determine IC50 values. […] Assays are performed analogously to the protocol described by PerkinElmer (Roy et al. PerkinElmer Technical Note: AlphaLISA #12, April 2011).
(§2) Assays are performed analogously to the protocol described by PerkinElmer (Roy et al. PerkinElmer Technical Note: AlphaLISA #12, April 2011).
(§3) Enzymes (final assay concentration 0.1-2.5 nM) are dissolved in enzyme buffer and incubated for 10 min before 5 μL is added to 5 μL 3% DMSO solutions of compounds in enzyme buffer, incubated for another 10 minutes, before 5 μL substrate solution is added and the reaction mixture is incubated at room temperature. 10 μL acceptor beads, suspended Epigenetic Buffer (Perkin Elmer AL008) from stock, are added and the suspension is incubated in the dark at room temperature, before 10 μL suspension of streptavidin donor beads (Perkin Elmer 6760002) in Epigenetic Buffer is added. After incubation at room temperature in the dark the plates are read.
(§4) Substrate solution: Substrate (final assay concentration 50-200 nM), 50 mM Hepes (pH 7.4-8.0), 0.003% Tween-20, 0.1% BS, 25 μM L-Asc, 10 μM α-KG. Enzyme Buffer: 50 mM Hepes (pH 7.4-8.0), 0.003% Tween-20, 0.1% BSA; 5 μM (NH4)2Fe(SO4)2

KDM6A (UTX) = target: T2, KDM6A (UTX) (Homo sapiens, UniProt O15550); assay: Histone lysine demethylase AlphaLISA assay, KDM6A; conditions: in vitro enzyme, read-out: KDM6A IC50 (HDME Inhibition)
T2 construct: 919-1401; host or cells: E. coli
Procedure: as §1, §2, §3, §4

PHF8 (KDM7) = PHF8 (KDM7) (Homo sapiens, UniProt Q9UPP1); assay: Histone lysine demethylase AlphaLISA assay, PHF8; conditions: in vitro enzyme, read-out: PHF8 IC50 (HDME Inhibition)
Procedure: as §1, §2, §3, §4

KDM5B (PLU-1) = target: T3, KDM5B (PLU-1) (Homo sapiens, UniProt Q9UGL1); assay: Histone lysine demethylase AlphaLISA assay, KDM5B; conditions: in vitro enzyme, read-out: KDM5B IC50 (HDME Inhibition)
T3 construct: 1-809; host or cells: E. coli
T3 sequence (Q9UGL1 1-809): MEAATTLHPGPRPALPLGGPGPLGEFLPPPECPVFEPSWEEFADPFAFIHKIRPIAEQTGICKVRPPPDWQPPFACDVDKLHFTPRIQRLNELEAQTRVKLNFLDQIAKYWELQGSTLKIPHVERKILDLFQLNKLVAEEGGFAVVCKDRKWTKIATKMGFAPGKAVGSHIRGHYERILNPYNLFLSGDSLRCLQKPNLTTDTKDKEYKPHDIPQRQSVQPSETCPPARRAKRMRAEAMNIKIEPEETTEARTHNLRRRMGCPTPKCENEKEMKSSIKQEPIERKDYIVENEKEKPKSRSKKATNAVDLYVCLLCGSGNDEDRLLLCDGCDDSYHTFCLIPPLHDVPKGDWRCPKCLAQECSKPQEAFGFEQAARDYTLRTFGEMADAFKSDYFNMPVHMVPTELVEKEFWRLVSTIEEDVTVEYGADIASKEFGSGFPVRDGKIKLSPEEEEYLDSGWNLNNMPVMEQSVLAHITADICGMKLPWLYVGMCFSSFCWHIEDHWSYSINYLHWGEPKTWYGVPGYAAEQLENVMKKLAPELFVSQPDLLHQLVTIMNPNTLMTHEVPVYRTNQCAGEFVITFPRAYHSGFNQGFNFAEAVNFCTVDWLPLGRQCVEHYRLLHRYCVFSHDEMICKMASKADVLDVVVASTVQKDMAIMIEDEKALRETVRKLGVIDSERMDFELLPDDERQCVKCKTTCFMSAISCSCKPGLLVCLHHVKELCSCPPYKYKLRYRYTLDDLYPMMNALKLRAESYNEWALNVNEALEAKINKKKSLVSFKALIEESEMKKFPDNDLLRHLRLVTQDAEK
Procedure: as §1, §2, §3, §4

Sequence of PHF8 (KDM7) (Q9UPP1 whole entry): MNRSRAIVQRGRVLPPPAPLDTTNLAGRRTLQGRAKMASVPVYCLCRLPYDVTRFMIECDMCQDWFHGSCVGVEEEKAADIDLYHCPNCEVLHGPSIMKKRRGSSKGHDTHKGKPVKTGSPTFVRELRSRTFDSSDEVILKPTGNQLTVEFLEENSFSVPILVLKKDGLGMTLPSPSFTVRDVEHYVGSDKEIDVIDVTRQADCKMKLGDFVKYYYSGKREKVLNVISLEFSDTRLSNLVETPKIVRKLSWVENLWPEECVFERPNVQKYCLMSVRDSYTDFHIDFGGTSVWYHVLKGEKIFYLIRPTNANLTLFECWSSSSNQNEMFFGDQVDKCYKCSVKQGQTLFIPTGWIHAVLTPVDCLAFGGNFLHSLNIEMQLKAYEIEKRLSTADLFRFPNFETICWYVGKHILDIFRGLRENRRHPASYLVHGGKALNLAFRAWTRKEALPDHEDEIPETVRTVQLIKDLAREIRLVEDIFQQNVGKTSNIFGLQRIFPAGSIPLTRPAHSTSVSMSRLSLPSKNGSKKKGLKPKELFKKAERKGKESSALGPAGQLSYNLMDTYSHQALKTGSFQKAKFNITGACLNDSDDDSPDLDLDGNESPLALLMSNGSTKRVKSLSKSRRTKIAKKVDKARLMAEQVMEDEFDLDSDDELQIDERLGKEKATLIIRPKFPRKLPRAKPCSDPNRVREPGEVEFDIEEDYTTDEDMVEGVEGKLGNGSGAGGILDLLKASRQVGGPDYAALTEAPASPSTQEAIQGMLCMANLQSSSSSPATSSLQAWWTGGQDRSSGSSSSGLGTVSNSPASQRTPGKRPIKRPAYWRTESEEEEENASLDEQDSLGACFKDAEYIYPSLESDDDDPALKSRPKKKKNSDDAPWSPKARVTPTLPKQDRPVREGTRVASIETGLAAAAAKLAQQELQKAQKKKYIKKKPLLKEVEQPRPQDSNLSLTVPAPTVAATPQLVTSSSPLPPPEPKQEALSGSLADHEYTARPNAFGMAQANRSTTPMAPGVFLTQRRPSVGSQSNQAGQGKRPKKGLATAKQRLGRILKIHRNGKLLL
T2 sequence (O15550 919-1401): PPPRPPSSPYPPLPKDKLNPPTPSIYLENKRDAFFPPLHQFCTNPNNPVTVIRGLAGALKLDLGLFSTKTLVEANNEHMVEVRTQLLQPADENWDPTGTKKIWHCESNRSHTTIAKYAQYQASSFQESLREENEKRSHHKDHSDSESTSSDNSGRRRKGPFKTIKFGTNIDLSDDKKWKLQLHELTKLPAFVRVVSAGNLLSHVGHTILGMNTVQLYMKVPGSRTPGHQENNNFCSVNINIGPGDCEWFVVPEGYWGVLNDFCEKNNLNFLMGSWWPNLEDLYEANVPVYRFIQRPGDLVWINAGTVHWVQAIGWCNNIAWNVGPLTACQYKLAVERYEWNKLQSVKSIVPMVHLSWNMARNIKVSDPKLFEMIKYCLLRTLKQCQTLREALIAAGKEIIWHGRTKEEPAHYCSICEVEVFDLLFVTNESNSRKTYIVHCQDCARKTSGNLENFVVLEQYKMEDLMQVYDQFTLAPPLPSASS

| SMILES | IC50 (KDM2B (FBXL10)) [nM] | IC50 (KDM6A (UTX)) [nM] | IC50 (PHF8 (KDM7)) [nM] | IC50 (KDM5B (PLU-1)) [nM] |
| --- | --- | --- | --- | --- |
| CSCC[C@H](NCc1cc(C(=O)O)ccn1)C(=O)OC(C)(C)C [Compound 49, 2-({[(2S)-1-(tert-butoxy)-4-(methylsulfanyl)-1-oxobutan-2-yl]amino}methyl)pyri-dine-4-carboxylic acid] | 250 to 2500 | > 2500 | 250 to 2500 | – |
| CC(N[C@@H](C)C(=O)NCc1ccccc1CO)c1cc(C(=O)O)ccn1 (stereo partly drawn) [Compound 19, 2-(1-{[(1S)-1-({[2-(hydroxymethyl)phenyl]methyl}carbamoyl)ethyl]amino}ethyl) pyridine-4-carboxylic acid] | 250 to 2500 | > 2500 | 250 to 2500 | – |
| C=CCN(CC=C)C(=O)[C@@H](CCC(N)=O)NCc1cc(C(=O)O)ccn1 [Compound 25, 2-({[(1R)-1-[bis(prop-2-en-1-yl)carbamoyl]-3-carbamoylpropyl]amino}methyl)pyridine-4-carboxylic acid] | 250 to 2500 | – | 250 to 2500 | 250 to 2500 |
| O=C(O)c1ccnc(CNCc2ccc3ncccc3c2)c1 [Compound 87, 2-{[(quinolin-6-ylmethyl)amino]methyl}pyridine-4-carboxylic acid] | 250 to 2500 | – | < 250 | < 250 |
| C=CCN(CC=C)C(=O)[C@@H](CC(=O)NCC1CC1)NCc1cc(C(=O)O)ccn1 [Compound 18, 2-({[(1R)-1-[bis(prop-2-en-1-yl)carbamoyl]-2-[(cyclopropylmethyl)carbamoyl]ethyl]amino}methyl)pyridine-4-carboxylic acid] | 250 to 2500 | > 2500 | – | 250 to 2500 |
| CCCC(NCC(=O)N1CCCCC1)c1cc(C(=O)O)ccn1 (stereo not shown) [Compound 45, 2-(1-{[2-oxo-2-(piperidin-1-yl)ethyl]amino}butyl) pyridine-4-carboxylic acid] | 250 to 2500 | – | 250 to 2500 | – |
| O=C(O)c1ccnc(CN2CCn3ccnc3C2)c1 [Compound 52, 2-{5H,6H,7H,8H-imidazo[1,2-a]pyrazin-7-ylmethyl}pyridine-4-carboxylic acid] | > 2500 | > 2500 | – | 250 to 2500 |
| CC(C)C[C@H](NCc1cc(C(=O)O)ccn1)C1CCCO1 (stereo partly drawn) [Compound 60, 2-({[(1S)-3-methyl-1-(oxolan-2-yl)butyl]amino}methyl) pyridine-4-carboxylic acid] | > 2500 | > 2500 | – | < 250 |
| CN(C)CC1CCN(Cc2cc(C(=O)O)ccn2)Cc2nccn21 (stereo not shown) [Compound 54, 2-({5-[(dimethylamino)methyl]-5H,6H,7H,8H,9H-imidazo[1,2-a][1,4]diazepin-8-yl}methyl)pyridine-4-carboxylic acid] | > 2500 | – | – | 250 to 2500 |
| CC1(C)Cc2cccnc2C1NCc1cc(C(=O)O)ccn1 (stereo not shown) [Compound 102, 2-[({6,6-dimethyl-5H,6H,7H-cyclopenta[b]pyridin-7-yl}amino)methyl]pyri-dine-4-carboxylic acid] | 250 to 2500 | – | 250 to 2500 | 250 to 2500 |

The next lines start with the values.

| IC50 (KDM2B (FBXL10)) [nM] | IC50 (KDM6A (UTX)) [nM] | IC50 (PHF8 (KDM7)) [nM] | IC50 (KDM5B (PLU-1)) [nM] | SMILES |
| --- | --- | --- | --- | --- |
| < 250 | > 2500 | – | – | O=C(O)c1ccnc(CNCc2cncc3ccccc23)c1 [Compound 85, 2-{[(isoquinolin-4-ylmethyl)amino]methyl}pyridine-4-carboxylic acid] |
| 250 to 2500 | – | 250 to 2500 | 250 to 2500 | CC(C)C[C@@H]1[C@@H](O)CC(C)N1Cc1cc(C(=O)O)ccn1 (stereo partly drawn) [Compound 59, 2-{[(2R,3S)-3-hydroxy-5-methyl-2-(2-methylpropyl)pyrrolidin-1-yl]methyl}pyridine-4-carboxylic acid] |
| < 250 | > 2500 | < 250 | – | CCN1CC[C@@H](CNCc2cc(C(=O)O)ccn2)C1=O [Compound 105, 2-[({[(3S)-1-ethyl-2-oxopyrrolidin-3-yl]methyl}amino)methyl]pyridine-4-carboxylic acid] |
| < 250 | – | < 250 | < 250 | CCc1ccnc2c1CCC2NCc1cc(C(=O)O)ccn1 (stereo not shown) [Compound 97, 2-[({4-ethyl-5H,6H,7H-cyclopenta[b]pyridin-7-yl}amino)methyl]pyri-dine-4-carboxylic acid] |
| 250 to 2500 | – | 250 to 2500 | – | COc1ccc(CCCN(CC(=O)N2CCCCC2)Cc2cc(C(=O)O)ccn2)cc1 [Compound 46, 2-({[3-(4-methoxyphenyl)propyl] [2-oxo-2-(piperidin-1-yl)ethyl]amino}methyl) pyridine-4-carboxylic acid] |
| < 250 | > 2500 | – | < 250 | CCN1CCC[C@H](CNCc2cc(C(=O)O)ccn2)C1=O [Compound 107, 2-[({[(3R)-1-ethyl-2-oxopiperidin-3-yl]methyl}amino)methyl]pyridine-4-carboxylic acid] |
| 250 to 2500 | > 2500 | 250 to 2500 | – | CC(N[C@@H](C)c1nccs1)c1cc(C(=O)O)ccn1 (stereo partly drawn) [Compound 28, 2-(1-{[(1S)-1-(1,3-thiazol-2-yl)ethyl]amino}ethyl) pyridine-4-carboxylic acid] |
| < 250 | – | < 250 | – | O=C(O)c1ccnc(CNC2CCc3c(CCc4ccccc4)ccnc32)c1 (stereo not shown) [Compound 96, 2-({[4-(2-phenylethyl)-5H,6H,7H-cyclopenta[b]pyridin-7-yl]amino}methyl)pyri-dine-4-carboxylic acid] |
| 250 to 2500 | – | > 2500 | > 2500 | O=C(O)c1ccnc(CN2CCCCC2CO)c1 (stereo not shown) [Compound 66, 2-{[2-(hydroxymethyl)piperidin-1-yl]methyl} pyridine-4-carboxylic acid] |
| 250 to 2500 | > 2500 | 250 to 2500 | – | CC(N[C@@H](C)C(=O)NCc1ccccc1)c1cc(C(=O)O)ccn1 (stereo partly drawn) [Compound 36, 2-(1-{[(1S)-1-(benzylcarbamoyl)ethyl]amino}ethyl)pyridine-4-carboxylic acid] |
| 250 to 2500 | > 2500 | – | > 2500 | C=CCN(CC=C)C(=O)[C@@H](CC(=O)NCCCC)NCc1cc(C(=O)O)ccn1 [Compound 24, 2-({[(1R)-1-[bis(prop-2-en-1-yl)carbamoyl]-2-(butylcarbamoyl)ethyl]amino}methyl)pyridine-4-carboxylic acid] |
| 250 to 2500 | > 2500 | 250 to 2500 | – | CC(C)C[C@H](NCc1cc(C(=O)O)ccn1)C(=O)NCc1ccccc1NC(=O)C1CC1C (stereo partly drawn) [Compound 7, 2-({[(1S)-3-methyl-1-({[2-(2-methylcyclopropane-amido)phenyl]methyl}carbamoyl)butyl]amino}methyl)pyridine-4-carboxylic acid] |
